In US20050222200A1, “AMIDE DERIVATIVES AS ION CHANNEL LIGANDS AND PHARMACEUTICAL COMPOSITIONS AND METHODS OF USING THE SAME” (Renovis, Inc., priority 2003, published 2005):

Biological target: VR1 (Rattus norvegicus, UniProt O35433)
Test: Calcium imaging assay: inhibition of capsaicin induced calcium influx in DRG neurons (Fura2, microscope)
Type: cell-based
Design: endogenous in cells; host or cells: DRG neurons
Conditions: capsaicin stimulation; class symbols per legend
Experimental: VR1 protein is a heat-gated cation channel that […] resulting in neuronal membrane depolarization and elevated intracellular calcium levels. Therefore the functional activity of compounds at the VR1 receptor may be determined by measuring changes in intracellular calcium levels in neurons such as the dorsal root ganglion.
DRG neurons were grown on PDL coated 96-well black-walled plates, in the presence of DMEM medium containing 5% Penstrep, 5% Glutamax, 200 μg/ml hygromycin, 5 μg/ml blasticide and 10% heat inactivated FBS. Prior to assay, cells were loaded with 5 μg/ml Fura2 in normal saline solution at 37° C for 40 minutes. Cells were then washed with normal saline to remove dye before commencement of the experiment.
The plated neurons were transferred into a chamber on the stage of a Nikon eclipse TE300 microscope after which neurons were allowed to attain a stable fluorescence for about 10 minutes before beginning the experiment. The assay consists of two stages, a pretreatment phase followed by a treatment phase. First, a solution of the test compound was added from a multivalve perfusion system to the cells for 1 minute (pretreatment). Immediately following, capsaicin (250 nM) was added in the presence of the test compound (treatment) for a specific period between 20 and 60 seconds.
Fura2 was excited at […] to indicate relative calcium ion concentration. Changes in wavelength measurements were made throughout the course of the experiment. The fluorescence ratio was calculated by dividing fluorescence measured at 340 nm by that at 380 nM. Data was collected using Intelligent Imaging’s Slidebook software. All compounds that inhibited capsaicin induced calcium influx greater than 75% were considered positives.
Fluorescence reflecting calcium ion influx is reduced.

VR1 (Rattus norvegicus, UniProt O35433), sequence (O35433 whole entry): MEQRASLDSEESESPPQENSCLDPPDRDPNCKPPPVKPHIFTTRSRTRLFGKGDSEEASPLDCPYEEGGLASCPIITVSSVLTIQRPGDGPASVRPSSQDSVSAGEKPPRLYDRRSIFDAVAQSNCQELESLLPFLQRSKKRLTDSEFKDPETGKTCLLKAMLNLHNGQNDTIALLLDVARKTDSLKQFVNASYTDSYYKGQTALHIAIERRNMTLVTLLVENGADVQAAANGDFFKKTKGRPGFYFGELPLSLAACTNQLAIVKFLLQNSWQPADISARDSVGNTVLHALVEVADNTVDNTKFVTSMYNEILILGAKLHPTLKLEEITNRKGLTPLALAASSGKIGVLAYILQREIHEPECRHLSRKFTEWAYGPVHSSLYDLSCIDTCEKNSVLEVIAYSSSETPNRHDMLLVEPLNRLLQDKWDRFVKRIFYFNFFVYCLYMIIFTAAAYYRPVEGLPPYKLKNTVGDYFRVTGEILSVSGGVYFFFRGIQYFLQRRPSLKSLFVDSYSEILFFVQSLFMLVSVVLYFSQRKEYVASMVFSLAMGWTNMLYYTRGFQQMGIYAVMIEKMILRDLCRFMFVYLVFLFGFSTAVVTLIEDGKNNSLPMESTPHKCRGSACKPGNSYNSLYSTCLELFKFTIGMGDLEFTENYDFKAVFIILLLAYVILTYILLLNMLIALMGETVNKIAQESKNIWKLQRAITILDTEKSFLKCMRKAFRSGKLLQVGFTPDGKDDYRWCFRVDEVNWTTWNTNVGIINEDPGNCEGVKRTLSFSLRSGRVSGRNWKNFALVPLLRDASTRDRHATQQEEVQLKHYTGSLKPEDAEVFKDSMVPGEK

Compound | inhibition of calcium ion influx induced by capsaicin stimulation
CCC/C=C/c1ccc(C(=O)Nc2ccccc2Cl)cc1 [Compound 233] | + (compound exhibited 0-25% inhibition of calcium ion influx induced by capsaicin stimulation)
CCC/C=C/c1ccc(C(=O)Nc2cc(C)ccn2)cc1 [Compound 234] | + (compound exhibited 0-25% inhibition of calcium ion influx induced by capsaicin stimulation)
CCC/C=C/c1ccc(C(=O)NCC(C)C)cc1 [Compound 236] | + (compound exhibited 0-25% inhibition of calcium ion influx induced by capsaicin stimulation)
CCC/C=C/c1ccc(C(=O)NC2CCN(C)CC2)cc1 [Compound 237] | + (compound exhibited 0-25% inhibition of calcium ion influx induced by capsaicin stimulation)
CCC/C=C/c1ccc(C(=O)NCc2ccc(OC)c(OC)c2)cc1 [Compound 238] | + (compound exhibited 0-25% inhibition of calcium ion influx induced by capsaicin stimulation)
CCC/C=C/c1ccc(C(=O)NCc2cccc(F)c2)cc1 [Compound 239] | ++ (compound exhibited 25-50% inhibition of calcium ion influx induced by capsaicin stimulation)
CCC/C=C/c1ccc(C(=O)Nc2ccc(Cl)c(C(F)(F)F)c2)cc1 [Compound 242] | ++ (compound exhibited 25-50% inhibition of calcium ion influx induced by capsaicin stimulation)
CCC/C=C/c1ccc(C(=O)Nc2cccc(C#N)c2)cc1 [Compound 244] | ++ (compound exhibited 25-50% inhibition of calcium ion influx induced by capsaicin stimulation)
CCC/C=C/c1ccc(C(=O)Nc2ccccc2CCO)cc1 [Compound 245] | + (compound exhibited 0-25% inhibition of calcium ion influx induced by capsaicin stimulation)
CCC/C=C/c1ccc(C(=O)Nc2ccc(C(C)(C)C)cc2)cc1 [Compound 246] | + (compound exhibited 0-25% inhibition of calcium ion influx induced by capsaicin stimulation)
CCC/C=C/c1ccc(C(=O)Nc2ccc(C(C)C)cc2)cc1 [Compound 247] | + (compound exhibited 0-25% inhibition of calcium ion influx induced by capsaicin stimulation)
CCC/C=C/c1ccc(C(=O)Nc2ccc(CCCC)cc2)cc1 [Compound 248] | +++ (compound exhibited 50-75% inhibition of calcium ion influx induced by capsaicin stimulation)
CCC/C=C/c1ccc(C(=O)Nc2cc(OC)cc(C(F)(F)F)c2)cc1 [Compound 249] | + (compound exhibited 0-25% inhibition of calcium ion influx induced by capsaicin stimulation)
CCC/C=C/c1ccc(C(=O)Nc2ccc3[nH]ccc3c2)cc1 [Compound 252] | + (compound exhibited 0-25% inhibition of calcium ion influx induced by capsaicin stimulation)
CCC/C=C/c1ccc(C(=O)Nc2cc(CC)ccn2)cc1 [Compound 256] | + (compound exhibited 0-25% inhibition of calcium ion influx induced by capsaicin stimulation)
CCC/C=C/c1ccc(C(=O)Nc2ccc(Cl)nc2)cc1 [Compound 259] | + (compound exhibited 0-25% inhibition of calcium ion influx induced by capsaicin stimulation)
CCC/C=C/c1ccc(C(=O)Nc2ccc(OC)nc2)cc1 [Compound 260] | + (compound exhibited 0-25% inhibition of calcium ion influx induced by capsaicin stimulation)

Biological target: T1, VR1 (Homo sapiens, UniProt Q8NER1)
T1 construct: expressed in transfected cells; host or cells: 293 cells ("293 neurons" [sic])
T1 sequence (Q8NER1 whole entry, species assumed): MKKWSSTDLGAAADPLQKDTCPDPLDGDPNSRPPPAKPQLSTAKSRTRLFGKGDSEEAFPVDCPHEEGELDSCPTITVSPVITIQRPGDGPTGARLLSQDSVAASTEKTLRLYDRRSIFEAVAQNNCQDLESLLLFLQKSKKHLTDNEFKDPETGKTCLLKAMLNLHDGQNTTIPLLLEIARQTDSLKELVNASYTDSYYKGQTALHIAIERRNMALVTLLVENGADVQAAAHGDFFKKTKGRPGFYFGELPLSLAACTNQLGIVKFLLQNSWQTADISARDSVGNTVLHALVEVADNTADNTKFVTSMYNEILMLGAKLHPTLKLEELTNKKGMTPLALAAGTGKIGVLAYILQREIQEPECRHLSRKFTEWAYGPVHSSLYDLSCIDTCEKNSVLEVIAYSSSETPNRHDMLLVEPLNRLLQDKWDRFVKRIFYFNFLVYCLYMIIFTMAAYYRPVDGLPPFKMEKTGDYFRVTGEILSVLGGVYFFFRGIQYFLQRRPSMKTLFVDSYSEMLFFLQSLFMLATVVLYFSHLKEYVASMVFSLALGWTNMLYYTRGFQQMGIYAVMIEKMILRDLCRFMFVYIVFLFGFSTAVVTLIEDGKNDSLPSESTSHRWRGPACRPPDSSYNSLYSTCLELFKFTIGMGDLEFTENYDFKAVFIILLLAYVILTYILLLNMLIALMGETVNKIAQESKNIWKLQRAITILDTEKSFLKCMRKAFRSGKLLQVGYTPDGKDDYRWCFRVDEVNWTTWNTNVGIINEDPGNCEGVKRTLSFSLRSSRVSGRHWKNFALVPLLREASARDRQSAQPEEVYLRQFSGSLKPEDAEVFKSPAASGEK
Test: High throughput calcium imaging assay of VR1 antagonists (Fura2, Flex Station, 96 well)
Type: cell-based
Conditions: Table 1 activity class

Compound | inhibition of calcium ion influx induced by capsaicin stimulation
CCC/C=C/c1ccc(C(=O)NCCCCC)cc1 [Compound 193] | ++ (compound exhibited 25-50% inhibition of calcium ion influx induced by capsaicin stimulation)
CCC/C=C/c1ccc(C(=O)NCCc2ccccc2Cl)cc1 [Compound 194] | + (compound exhibited 0-25% inhibition of calcium ion influx induced by capsaicin stimulation)
CCC/C=C/c1ccc(C(=O)NCc2ccccc2)cc1 [Compound 196] | + (compound exhibited 0-25% inhibition of calcium ion influx induced by capsaicin stimulation)
CCC/C=C/c1ccc(C(=O)NCCCC)cc1 [Compound 197] | + (compound exhibited 0-25% inhibition of calcium ion influx induced by capsaicin stimulation)
CCC/C=C/c1ccc(C(=O)NCCC)cc1 [Compound 198] | ++ (compound exhibited 25-50% inhibition of calcium ion influx induced by capsaicin stimulation)
CCC/C=C/c1ccc(C(=O)Nc2ccncc2)cc1 [Compound 202] | + (compound exhibited 0-25% inhibition of calcium ion influx induced by capsaicin stimulation)
CCC/C=C/c1ccc(C(=O)Nc2cccnc2)cc1 [Compound 203] | + (compound exhibited 0-25% inhibition of calcium ion influx induced by capsaicin stimulation)
CCC/C=C/c1ccc(C(=O)Nc2cc[nH]n2)cc1 [Compound 204] | + (compound exhibited 0-25% inhibition of calcium ion influx induced by capsaicin stimulation)
CCC/C=C/c1ccc(C(=O)Nc2nccs2)cc1 [Compound 205] | + (compound exhibited 0-25% inhibition of calcium ion influx induced by capsaicin stimulation)
CCC/C=C/c1ccc(C(=O)NCC2CCCO2)cc1 (centres unmarked) [Compound 206] | + (compound exhibited 0-25% inhibition of calcium ion influx induced by capsaicin stimulation)
CCC/C=C/c1ccc(C(=O)NC2CCC(Cc3ccccc3)CC2)cc1 (centres unmarked) [Compound 207] | ++ (compound exhibited 25-50% inhibition of calcium ion influx induced by capsaicin stimulation)
CCC/C=C/c1ccc(C(=O)NCc2ccc3c(c2)OCO3)cc1 [Compound 208] | + (compound exhibited 0-25% inhibition of calcium ion influx induced by capsaicin stimulation)
CCC/C=C/c1ccc(C(=O)NCCN2CCOCC2)cc1 [Compound 209] | + (compound exhibited 0-25% inhibition of calcium ion influx induced by capsaicin stimulation)
CCC/C=C/c1ccc(C(=O)NCc2cccc(C(F)(F)F)c2)cc1 [Compound 211] | + (compound exhibited 0-25% inhibition of calcium ion influx induced by capsaicin stimulation)
CCC/C=C/c1ccc(C(=O)NCc2cc(OC)c(OC)c(OC)c2)cc1 [Compound 213] | + (compound exhibited 0-25% inhibition of calcium ion influx induced by capsaicin stimulation)
CCC/C=C/c1ccc(C(=O)NC2CCCC2)cc1 [Compound 214] | + (compound exhibited 0-25% inhibition of calcium ion influx induced by capsaicin stimulation)
CCC/C=C/c1ccc(C(=O)NCc2ccccn2)cc1 [Compound 216] | + (compound exhibited 0-25% inhibition of calcium ion influx induced by capsaicin stimulation)
CCC/C=C/c1ccc(C(=O)NCCc2ccc(OC)c(OC)c2)cc1 [Compound 217] | + (compound exhibited 0-25% inhibition of calcium ion influx induced by capsaicin stimulation)
CCC/C=C/c1ccc(C(=O)NC(C)(C)CO)cc1 [Compound 218] | + (compound exhibited 0-25% inhibition of calcium ion influx induced by capsaicin stimulation)
CCC/C=C/c1ccc(C(=O)NC(C)(C)c2ccccc2)cc1 [Compound 219] | + (compound exhibited 0-25% inhibition of calcium ion influx induced by capsaicin stimulation)
CCC/C=C/c1ccc(C(=O)NCC)cc1 [Compound 223] | +++ (compound exhibited 50-75% inhibition of calcium ion influx induced by capsaicin stimulation)
CCC/C=C/c1ccc(C(=O)NCc2cccs2)cc1 [Compound 224] | ++ (compound exhibited 25-50% inhibition of calcium ion influx induced by capsaicin stimulation)
CCC/C=C/c1ccc(C(=O)Nc2ccccc2C#N)cc1 [Compound 225] | + (compound exhibited 0-25% inhibition of calcium ion influx induced by capsaicin stimulation)
CCC/C=C/c1ccc(C(=O)Nc2cccc(N(C)C)c2)cc1 [Compound 226] | +++ (compound exhibited 50-75% inhibition of calcium ion influx induced by capsaicin stimulation)
CCC/C=C/c1ccc(C(=O)Nc2ccc(N(CC)CC)cc2)cc1 [Compound 227] | + (compound exhibited 0-25% inhibition of calcium ion influx induced by capsaicin stimulation)
CCC/C=C/c1ccc(C(=O)Nc2cccc(Cl)c2)cc1 [Compound 228] | +++ (compound exhibited 50-75% inhibition of calcium ion influx induced by capsaicin stimulation)
CCC/C=C/c1ccc(C(=O)Nc2ccccc2CCC)cc1 [Compound 230] | + (compound exhibited 0-25% inhibition of calcium ion influx induced by capsaicin stimulation)
